Measured values from patent publication US20020103192A1, “Inhibitors of histone deacetylase” (priority 2000, published 2002).

Row | Structure (SMILES) | melting point
1 | CNC(=O)C(=O)CCCCCCS(=O)(=O)c1ccc2ccccc2c1 [Example 107, N-methyl-8-(2-naphthylsulfonyl)-2-oxooctanamide] | 108 to 109 °C
2 | O=C(CCCCCCSc1ccccc1)c1ncco1 [Example 102, 1-(1,3-oxazol-2-yl)-7-(phenylsulfanyl)-1-heptanone] | 39 to 40 °C
3 | CNC(=O)C(=O)CCCCCCSc1ccc2ccccc2c1 [Example 106, N-methyl-8-(2-naphthylsulfanyl)-2-oxooctanamide] | 94 to 95 °C
4 | CNC(=O)C(=O)CCCCCCSc1ccc(-c2ccccc2)cc1 [Example 108, 8-((1,1′-biphenyl)-4-ylsulfanyl)-N-methyl-2-oxooctanamide] | 131 to 132 °C
5 | CC(=O)C(=O)CCCCCCOc1ccc(-c2ccccc2)cc1 [Example 113, 9-((1,1′-biphenyl)-4-yloxy)-2,3-nonanedione] | 110 to 111 °C
6 | O=C(NCCCCCC(=O)c1ncco1)c1cc2ccccc2[nH]1 [Example 111, N-(6-(1,3-oxazol-2-yl)-6-oxohexyl)-1H-indole-2-carboxamide] | 176 to 179 °C
7 | O=C(CCCCCCSc1ccc2ccccc2c1)c1ncco1 [Example 104, 7-(2-naphthylsulfanyl)-1-(1,3-oxazol-2-yl)-1-heptanone] | 65 to 66 °C
8 | O=C(NCCCCCCC(=O)c1ncco1)c1cc2ccccc2[nH]1 [Example 110, N-(7-(1 ,3-oxazol-2-yl)-7-oxoheptyl)-1H-indole-2-carboxamide] | 153 to 156 °C
9 | O=C(CCCCCCS(=O)(=O)c1ccccc1)c1ncco1 [Example 103, 1-(1,3-oxazol-2-yl)-7-(phenylsulfonyl)-1-heptanone] | 55 to 56 °C
10 | O=C(CCCCCCS(=O)(=O)c1ccc2ccccc2c1)c1ncco1 [Example 105, 7-(2-naphthylsulfonyl)-1-(1,3-oxazol-2-yl)-1-heptanone] | 75 to 76 °C
